# Patent US20010055590A1, “Method for enhancing myoblast migration and invasion in the context of gene therapy” (priority 1999, published 2001)
# B1: purified human plasmin (protein, UniProt P00747 20-580; P00747 581-810, looked up)
# Plasmin heavy chain A: EPLDDYVNTQGASLFSVTKKQLGAGSIEECAAKCEEDEEFTCRAFQYHSKEQQCVIMAENRKSSIIIRMRDVVLFEKKVYLSECKTGNGKNYRGTMSKTKNGITCQKWSSTSPHRPRFSPATHPSEGLEENYCRNPDNDPQGPWCYTTDPEKRYDYCDILECEEECMHCSGENYDGKISKTMSGLECQAWDSQSPHAHGYIPSKFPNKNLKKNYCRNPDRELRPWCFTTDPNKRWELCDIPRCTTPPPSSGPTYQCLKGTGENYRGNVAVTVSGHTCQHWSAQTPHTHNRTPENFPCKNLDENYCRNPDGKRAPWCHTTNSQVRWEYCKIPSCDSSPVSTEQLAPTAPPELTPVVQDCYHGDGQSYRGTSSTTTTGKKCQSWSSMTPHRHQKTPENYPNAGLTMNYCRNPDADKGPWCFTTDPSVRWEYCNLKKCSGTEASVVAPPPVVLLPDVETPSEEDCMFGNGKGYRGKRATTVTGTPCQDWAAQEPHRHSIFTPETNPRAGLEKNYCRNPDGDVGGPWCYTTNPRKLYDYCDVPQCAAPSFDCGKPQVEPKKCPGR
# Plasmin light chain B: VVGGCVAHPHSWPWQVSLRTRFGMHFCGGTLISPEWVLTAAHCLEKSPRPSSYKVILGAHQEVNLEPHVQEIEVSRLFLEPTRKDIALLKLSSPAVITDKVIPACLPSPNYVVADRTECFITGWGETQGTFGAGLLKEAQLPVIENKVCNRYEFLNGRVQSTELCAGHLAGGTDSCQGDSGGPLVCFEKDKYILQGVTSWGLGCARPNKPGVYVRVSRFVTWIEGVMRNN
# modifications: Plasmin
# Columns and labels:
# mouse myoblasts = assay: In vitro mouse myoblast invasion assay across Matrigel barrier; format: cell-based; conditions: 24 hours; for effect on bFGF-stimulated mouse myoblast invasion: 0.05 units/ml plasmin or 50 mM NAC; for increase of mouse myoblast invasion across Matrigel barrier over the control: 25 ng/ml bFGF, 50 μg/ml fibronectin
# Protocol: Mouse myoblasts were previously isolated from hind limb muscles of 4-6 week old severe combined immunodeficient (SCID) mice and clonally purified from contaminating fibroblasts (Yao et al. “Primary myoblast-mediated gene: transfer: persistent expression of human factor IX in mice” Gene Therapy 1:99-107, 1994). Myoblasts (approximately 1×10^6 cells) were plated on 6 cm tissue culture plates coated with 0.5% gelatin (Sigma, St. Louis, Mo.) and grown in growth medium consisting of Dulbecco's Modified Eagle Medium (DMEM) (Gibco BRL, Gaithersburg Md.) supplemented with 20% fetal bovine serum (FBS; Gibco) and 0.5% chick embryo extract (CEE; Gibco). All animal studies were carried out following the institutional guidelines for ethical animal use. Human myoblasts were isolated using trypsin digestion from abdominal wall or chest wall muscle biopsies, and surgery. Written consent was obtained from all patients prior to biopsy isolation as approved by the University Hospital's Institutional Regulation Board on the use of human subjects. Cells were preplated on uncoated plates for 1 hour to separate muscle fibroblasts. […] All experiments were done with myoblasts of passage 7 or lower. Myoblast migration and invasion were examined using a commercially available in vitro cell migration and invasion assay kit (Biocoat, Becton Dickinson, Franklin Lakes, N.J.) as described by Albini et al. (A rapid in vitro assay for quantitating the invasive potential of tumor cells Cancer Res 47:3239-3245, 1987). Myoblasts were grown to approximately 70% confluence, rinsed three times in serum-free DMEM, followed by incubation for 3 hours in 0.2% bovine serum albumin (BSA) in DMEM to eliminate the effects of serum. Cells were then trypsinized and collected by centrifugation. Cells were resuspended in serum-free DMEM at a density of 1×10^5 cells/ml, and 0.5 ml aliquots of cell suspension were added to the top chamber. […] Fibronectin subfragments of 45 KDa (Sigma), 120 kDa (Gibco), 63 kDa (Retronectin, Takara) and 70 KDa (Sigma) were used alone or in combination. […] For migration studies, the upper chamber membrane was coated with 0.1% gelatin and cells were allowed to migrate for 8-12 hours, while for invasion studies, the upper membrane was coated with 5 μl of Matrigel® diluted to 5 mg/ml in sterile phosphate buffered saline (PBS) and cells were allowed to invade for 24 hours. The top side of the insert membrane was scrubbed free of cells using a cotton swab and the bottom side was stained using the Leukostat-I system (Fisher Diagnostics, Pittsburgh, Pa.). The number of cells per field was counted in 10 randomly selected fields and averaged for each condition. To evaluate the effects of inactivation or activation of MMPs, aliquots (0.05 units in 50 μl PBS) of purified human plasmin (Sigma) or 50 mM N-acetyl cysteine (NAC; Sigma) were added with the cells to the top chamber of the migration assay and growth factor was added to the bottom. […] Myoblasts (5×10^4 cells/well) were stimulated with various growth factors and fibronectin, and their ability to migrate or invade through a Matrigel® barrier (panel a, mouse myoblast migration at 12 hours; panel b, mouse myoblast invasion at 24 hours). […] Bars represent mean ±SEM from a minimum of 3 separate experiments.
# MMP-9 = assay: Gelatin zymography of mouse myoblast culture medium, MMP-9; format: cell-based
# Protocol: Briefly, myoblasts were grown in 6 cm tissue culture plates to approximately 70% confluence, then rinsed three times with serumfree DMEM and incubated for 3 hours in DMEM containing 0.2% BSA to eliminate the effects of serum. Growth factors were added and cells were incubated for 24 hours. Culture medium was then collected, centrifuged to pellet detached cells, and concentrated ten-to twenty-fold using the Centricon-10 (Amicon, Beverly, Mass.) system. The protein concentration of the supernatants was determined using the Bio-Rad protein microassay system with BSA used as the standard. Samples were stored at −70° C. until use. For gelatin zymography, aliquots (10 μg as the total protein per sample) were electrophoresed at constant voltage on a 10% polyacrylamide gel containing 2 mg/ml gelatin. The gel was rinsed three times for 15 min in 2.5% Triton-X 100 to remove SDS and renature the proteins, then incubated in MMP activation buffer (0.05 M Tris-HCl, pH 7.5 with 5 mM CaCl2) for 24 hours at 37° C. with constant shaking. Gels were stained overnight in 0.5% Coomassie blue R-250, and destained for 1 hour in 40% methanol: 10% acetic acid. Proteinase activity was quantified by densitometric scanning of bands using a Bio-Rad Gel Doc 1000 video camera imaging system (Bio Rad, Hercules, Calif.). […]
# MMP-2 = assay: Gelatin zymography of mouse myoblast culture medium, MMP-2; format: cell-based
# Protocol: Briefly, myoblasts were grown in 6 cm tissue culture plates to approximately 70% confluence, then rinsed three times with serumfree DMEM and incubated for 3 hours in DMEM containing 0.2% BSA to eliminate the effects of serum. Growth factors were added and cells were incubated for 24 hours. Culture medium was then collected, centrifuged to pellet detached cells, and concentrated ten-to twenty-fold using the Centricon-10 (Amicon, Beverly, Mass.) system. The protein concentration of the supernatants was determined using the Bio-Rad protein microassay system with BSA used as the standard. Samples were stored at −70° C. until use. For gelatin zymography, aliquots (10 μg as the total protein per sample) were electrophoresed at constant voltage on a 10% polyacrylamide gel containing 2 mg/ml gelatin. The gel was rinsed three times for 15 min in 2.5% Triton-X 100 to remove SDS and renature the proteins, then incubated in MMP activation buffer (0.05 M Tris-HCl, pH 7.5 with 5 mM CaCl2) for 24 hours at 37° C. with constant shaking. Gels were stained overnight in 0.5% Coomassie blue R-250, and destained for 1 hour in 40% methanol: 10% acetic acid. Proteinase activity was quantified by densitometric scanning of bands using a Bio-Rad Gel Doc 1000 video camera imaging system (Bio Rad, Hercules, Calif.). […] Values are arbitrary densitometric units, which are normalized to DMEM control for each experiment and shown as values ±SEM representing a minimum of 3 experiments per condition. […] Mouse myoblasts were treated for 24 hours with either DMEM alone, fibronectin (50 μg/ml), or individual fragments (37.5 μg/ml) of 45, 120, 63 (Retronectin), 75 kDa and their combinations, 45 kDa/120 kDa and 120 kDa/63 kDa.
# [1] = test system: SCID mouse vastus musculature; assay: Myoblast implantation in vivo: incorporation of β-GAL-marked myoblasts into host myofibers; conditions: myoblasts stimulated before implantation with 1 μg/ml bFGF, 50 μg/ml fibronectin or both; SCID mice, 3 weeks; 4 animals
# Protocol: All animal studies were carried out following the institutional guideline for animal use. For in vivo studies, SCID mouse myoblasts transduced with a BAG retrovirus containing the beta-galactosidase (β-GAL) reporter gene and selected as previously described (Yao and Kurachi “Implanted myoblasts not only fuse with myofibers but also survive as muscle precursor cells” J. Cell Sci 105:957-963, 1993), were grown in growth medium on 15 cm plates. When cells reached 70% confluence they were harvested by trypsinization using standard methods, rinsed twice in phosphate buffered saline (PBS), and resuspended in DMEM containing either bFGF (1 μg/ml), fibronectin (50 μg/ml) or both, at a concentration of 2×10^7 cells/ml. […]
# Muscle sections were stained for β-GAL activity using the standard histochemical staining procedure (Rando et al. “The fate of myoblasts following transplant into mature muscle” Exper. Cell Res. 220:383-389, 1995). […] The total number of β-GAL-positive fibers (stained blue) per section was counted for 5 different sections spanning the entire injection site for each animal and averaged. […]
# The number of β-GAL positive myofibers were quantified after implantation of BAG-transduced SCID myoblasts treated with DMEM alone (control), 1 μg/ml bFGF, 50 μg/ml fibronectin, or 1 μg/ml bFGF+50 μg/ml fibronectin. […]
# [2] = mouse myoblasts treated 24 hours
Molecule,effect on bFGF-stimulated mouse myoblast invasion (mouse myoblasts),increase of mouse myoblast invasion across Matrigel barrier over the control (mouse myoblasts),increase in the number of β-GAL-positive myofibers over control [1] [fold],other results
"CC(=O)N[C@@H](CS)C(=O)O [NAC, N-acetyl cysteine, reference compound]",drastically reduced such stimulatory effects to the control levels,,,
bovine basic fibroblast growth factor [bFGF],,approximately 7 fold,2.3,"MMP-9 expression (110 kDa band) over the DMEM control level (MMP-9; [2]): ~10 fold; increase of total MMP-2 expression (MMP-2; mouse myoblasts treated 24 hours, densitometry normalized to DMEM control): 49%"
human serum fibronectin,,4 fold,2,"effect on MMP-9 expression (MMP-9; mouse myoblasts): does not significantly affect; MMP-2 proteolytic activation (64 and 62 kDa forms) (MMP-2; [2]): substantial proteolytic conversion to the activated and intermediate forms; increased MMP-2 expression (MMP-2; mouse myoblasts, soluble fibronectin 24 hours): approximately 2 fold"
B1,further increased the effects of bFGF,,,effect on invasion stimulated by combination of bFGF and fibronectin (mouse myoblasts; plasmin): lowered the greatly enhanced effects
